# Experimental data taken from paper PMC12434536, “Radiosynthesis and Preclinical Evaluation of a Carbon-11 Labeled Phosphodiesterase 7 Inhibitor for PET Neuroimaging” (ACS Medicinal Chemistry Letters, 2025).
# Columns and labels:
# [1] = biological target: T1, HEK293-PDE7B recombinant cell lines (Homo sapiens, UniProt Q9NP56); test: In vitro cell uptake and blocking of [11C]27; type: cell-based; conditions: blocker 1 μM, 60 min incubation, PDE7B overexpressing HEK293 cells, n = 4
# T1 construct: host or cells: HEK293
# T1 sequence (Q9NP56 whole entry): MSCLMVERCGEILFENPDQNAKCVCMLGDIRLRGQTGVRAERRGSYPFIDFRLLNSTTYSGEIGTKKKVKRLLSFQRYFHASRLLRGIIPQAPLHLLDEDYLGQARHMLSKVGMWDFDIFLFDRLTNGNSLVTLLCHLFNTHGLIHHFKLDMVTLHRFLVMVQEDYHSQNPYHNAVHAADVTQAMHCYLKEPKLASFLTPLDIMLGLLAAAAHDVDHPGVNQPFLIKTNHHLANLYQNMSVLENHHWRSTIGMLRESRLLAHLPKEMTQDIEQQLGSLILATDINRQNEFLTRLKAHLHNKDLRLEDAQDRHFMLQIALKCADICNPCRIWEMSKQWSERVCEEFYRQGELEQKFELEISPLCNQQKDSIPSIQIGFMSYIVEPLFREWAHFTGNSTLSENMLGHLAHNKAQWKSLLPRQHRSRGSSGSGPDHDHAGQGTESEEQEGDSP
# Experimental: Control study: HEK293-PDE7B Recombinant cells (catalog#60412, BPS Bioscience) and HEK293 control cells (catalog# CRL-1573, ATCC) – both in logarithmic growth phase – were plated in a 24 well plate (2 × 10^5 cells per well) and cultured overnight. After 24 hr, each well was added 2 μCi of [ 11C]27, and incubated at 37 °C for 30 min or 60 min. The radioactive medium was aspirated and collected in a tube. The residual cells were washed twice with PBS, and then collected in the same tube. The cells were lysed with 1 N NaOH (200 μL) and washed twice with PBS, all the resulting solutions were collected in one tube.
# The radioactivity in the collected supernatant and cell lysis buffer (600 μL/tube) was measured using a Cobra Model 5002/5003 gamma counter, respectively.
# Blocking study: HEK293-PDE7B cells in logarithmic growth phase were plated in 24 well plate (2 × 10^5 cells per well) and cultured overnight. After 24 h, each well was added 2 μCi of [11C]27 with or without unlabeled reference compound 27 or BRL50481, respectively. The resulting culture medium contained 2 μCi of [ 11C]27, 1 µM of unlabeled compound 27 or BRL50481, and 5% DMSO. Cells were incubated at 37 °C for 60 min and samples were collected as described for the control study. The cell uptake was calculated according to the following eq.: cell uptake% = A lysis buffer/(A lysis buffer+Asupernate) (n = 4)
# CYP1A2 = biological target: T2, CYP1A2 (Homo sapiens, UniProt P05177); test: CYP450 isoform inhibition profiling, CYP1A2; type: in vitro ADME
# T2 sequence (P05177 1-516): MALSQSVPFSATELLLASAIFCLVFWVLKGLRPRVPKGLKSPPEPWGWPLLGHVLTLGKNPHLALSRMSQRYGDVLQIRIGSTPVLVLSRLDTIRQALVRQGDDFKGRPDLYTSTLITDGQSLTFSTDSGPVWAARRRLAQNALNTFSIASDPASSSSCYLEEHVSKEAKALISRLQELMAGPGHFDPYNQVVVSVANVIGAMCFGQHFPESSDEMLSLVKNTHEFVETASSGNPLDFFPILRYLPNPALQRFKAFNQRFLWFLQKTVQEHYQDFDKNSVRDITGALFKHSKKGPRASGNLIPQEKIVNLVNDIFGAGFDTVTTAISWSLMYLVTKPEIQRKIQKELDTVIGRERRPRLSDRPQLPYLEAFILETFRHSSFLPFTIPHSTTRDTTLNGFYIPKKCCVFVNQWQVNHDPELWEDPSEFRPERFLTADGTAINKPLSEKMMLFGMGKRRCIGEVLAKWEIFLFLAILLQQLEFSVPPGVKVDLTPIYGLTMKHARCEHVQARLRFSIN
# Experimental: (§1) page 5: protein-ligand complex were saved and were then loaded into Schrödinger Maestro to generate the ligand interaction plot. In vitro inhibitory assay to PDE7 of compound 27 and selectivity to other PDEs Functional activity of target compound 27 for inhibition of PDE7A activity and the selectivity over other PDE isozymes ([…], and 10A) were evaluated by Eurofins Panlabs Discovery Services and Reaction Biology Corp., respectively. Human recombinant enzymes were used for the assays. The inhibitory assays were performed and calculated in duplicate at 3 μM. If the inhibition percentage was less […] duplicate. CYP450 isoform metabolism and in vitro safety profiling The inhibitory constant of compound 26 toward cytochrome P450-dependent metabolic pathways was determined for individual CYP isoform (CYP1A2, CYP2C9, CYP2C19, CYP2D6, and CYP3A4). Reference inhibitors were included as positive controls. A 10 μM solution of compound 27 was used for initial screening. If the inhibition percentage was less than 50%, the experiment was stopped. […] gradient concentrations of compound 27 were used for IC 50 determination. The P450 reactions were detected at Ext/Em: 405 nm/460 nm (530 nm/605 nm for CYP2C9) in a S3 page 6: […] IC50 curves were plotted using a non-linear regression model with Graphpad Prism 6. […] Plasma and brain samples were quantified by LC-MS/MS method. […]
# [2] = system: CYP2C9, CYP2C19, CYP2D6, CYP3A4; test: CYP450 isoform inhibition profiling, other isoforms; type: in vitro ADME; conditions: all isoforms except CYP1A2; read-out: IC50 against the other CYP450 isoforms
# Experimental: as §1
# [3] = system: other PDE isozymes (PDE1A/B/C, 2A, 3A/B, 4A/B/C/D, 5A, 8A, 9A, and 10A); test: Selectivity over other PDE isozymes; type: biochemical; conditions: at 3 μM of compound 27; human recombinant enzymes
# Experimental: protein-ligand complex were saved and were then loaded into Schrödinger Maestro to generate the ligand interaction plot.
# In vitro inhibitory assay to PDE7 of compound 27 and selectivity to other PDEs Functional activity of target compound 27 for inhibition of PDE7A activity and the selectivity over other PDE isozymes (PDE1A/B/C, 2A, 3A/B, 4A/B/C/D, 5A, 8A, 9A, and 10A) were evaluated by Eurofins Panlabs Discovery Services and Reaction Biology Corp., respectively. Human recombinant enzymes were used for the assays. The inhibitory assays were performed and calculated in duplicate at 3 µM. If the inhibition percentage was less than 50%, the assay for half-maximal inhibitory concentration (IC50) value was conducted in […]
# CYP450 isoform metabolism and in vitro safety profiling
# The inhibitory constant of compound 26 toward cytochrome P450-dependent metabolic pathways was determined for individual CYP isoform (CYP1A2, CYP2C9, CYP2C19, CYP2D6, and CYP3A4). Reference inhibitors were included as positive controls. A 10 µM solution of compound 27 was used for initial screening. If the inhibition percentage was less than 50%, the experiment was stopped. If the inhibition potency was greater than 50%, the gradient concentrations of compound 27 were used for IC 50 determination. The P450 reactions were detected at Ext/Em: 405 nm/460 nm (530 nm/605 nm for CYP2C9) in a […]
compound,measurement,setting,value
COc1ccc(Cl)c2c1C1(CCCCC1)NC(=O)N2 [Compound 27],blockade of [11C]27 cell uptake,[1],ca. 90%
same,IC50,CYP1A2,4.4 µM
same,IC50 at 80 min,[2],≥ 10 µM
same,% inhibition of other PDE isomers,[3],< 50%
